Experimental data: patent publication US20260317292A1, “SMALL MOLECULE THERAPY FOR DUCHENNE MUSCULAR DYSTROPHY” (The Regents of the University of California, priority 2023, published 2026)

Test system: endogenous SSPN protein with an N-term fusion protein (C2C12 cells)
Assay: C2C12 HiBiT assay (SSPN-HiBiT myotubes, primary screen)
Format: cell-based, murine
Conditions: treated day 2, harvested day 4 of differentiation; for SSPN-HiBiT fold change over vehicle: concentration not given; for activity in HiBiT assay: vs vehicle
Method: FIG. 1. Activity of DDL-463, DDL-465 (A) and DDL-472 (B) in HiBiT assay. Comparison of activity of the new compounds with parent compound (OT-9m) and vehicle-treated cells. SSPN-HiBiT myotubes were treated on day 2 and harvested on day 4 of differentiation. R.U.=relative units normalized to protein concentration and vehicle control (DMSO). n=18. **p<0.01, ****p<0.0001, ns-difference is non-significant from the vehicle-treated cells.
(§1) Comparison of activity of the new compounds of quinolone series (DDL-494, DDL-495, DDL-496) with parent compound (DDL-449 (aka OT-9m)) and vehicle-treated cells. SSPN-HiBiT myotubes were treated on day 2 and harvested on day 4 of differentiation. R.U.=relative units normalized to protein concentration and vehicle control (DMSO). n=18 for every compound concentration. *p<0.05; **p<0.01, ***p<0.001; ****p<0.0001
as §1, with “compound” for “compounds”, “coumarin” for “quinolone”, “(DDL-491)” for “(DDL-494, DDL-495, DDL-496)”, “(DDL-472)” for “(DDL-449 (aka OT-9m))”, “*p<0.05;” for “*p<0.05; **p<0.01, ***p<0.001;”
To assess activity of the new molecules, a C2C12 HiBiT assay was used as a primary screen. This assay is based on murine C2C12 cell line expressing endogenous SSPN protein with an N-term fusion protein described previously in WO 2022/055926.
Details on development of HiBiT assay for rapid testing of new analogues in vitro (FIG. 2A, B) are provided in PCT Pub. No. WO 2022/055926.

SMILES | SSPN-HiBiT fold change over vehicle [fold] | activity in HiBiT assay
COc1ccc2[nH]c(=O)c(C(=O)NC3=NNC(C(=O)N4CCCOCC4)N3)cc2c1 (stereo not drawn) [DDL-458] | ~1 | –
COc1ccc2[nH]c(=O)c(C(=O)Nc3c[nH]c(C(=O)N4CCCOCC4)n3)cc2c1 [DDL-459, N-(2-(1,4-oxazepane-4-carbonyl)-1H-imidazol-4-yl)-6-methoxy-2-oxo-1,2-dihydroquinoline-3-carboxamide] | ~1 | –
COc1cc2cc(C(=O)Nc3ccc(C(=O)N4CCCOCC4)cc3)c(=O)[nH]c2cc1OC [DDL-461] | 1.1 | –
CC(C)Oc1ccc2cc(C(=O)Nc3ccc(C(=O)N4CCCOCC4)cc3)c(=O)oc2c1 [DDL-481] | ~0.9 | –
O=C(Nc1ccc(C(=O)N2CCCOCC2)cc1)c1cc2ccc(N3CCOCC3)cc2oc1=O [DDL-482] | ~1 | –
CN(C)c1ccc2cc(C(=O)Nc3ccc(C(=O)N4CCCOCC4)cc3)c(=O)oc2c1 [DDL-484] | 1.1 | –
C#CCN(CC)c1ccc2cc(C(=O)Nc3ccc(C(=O)N4CCCOCC4)cc3)c(=O)oc2c1 [DDL-489] | 1.2 | –
CC(C)N(c1ccc2cc(C(=O)Nc3ccc(C(=O)N4CCCOCC4)cc3)c(=O)oc2c1)C(C)C [DDL-491] | 1.4 | active

Now from value to compound, other results behind:

SSPN-HiBiT fold change over vehicle [fold] | SMILES | activity in HiBiT assay
1.1 | COc1ccc2cc(C(=O)Nc3ccc(C(=O)N4CCCOCC4)cc3)c(=O)[nH]c2c1 [DDL-460] | –
~1 | O=C(Nc1ccc(C(=O)N2CCCOCC2)cc1)c1cc2ccccc2[nH]c1=O [DDL-462] | –
1.4 | O=C(Nc1ccc(C(=O)N2CCCOCC2)cc1)c1cc2cc(F)ccc2[nH]c1=O [DDL-463] | exhibit activity
~1 | O=C(Nc1ccc(C(=O)N2CCCOCC2)cc1)c1cc2ccc(F)cc2[nH]c1=O [DDL-464] | –
~1 | CC(=O)Nc1ccc2[nH]c(=O)c(C(=O)Nc3ccc(C(=O)N4CCCOCC4)cc3)cc2c1 [DDL-476] | –
1.3 | O=C(Nc1ccc(C(=O)N2CCCOCC2)cc1)c1cc2cc(Br)ccc2[nH]c1=O [DDL-496] | active
1.4 | CC(C)Oc1ccc2[nH]c(=O)c(C(=O)Nc3ccc(C(=O)N4CCCOCC4)cc3)cc2c1 [DDL-762] | –
